Results on four compounds are retold here after ChEMBL document CHEMBL1914315, “Fijimycins A-C, three antibacterial etamycin-class depsipeptides from a marine-derived Streptomyces sp” (2011).

Common to all, as to assay type: functional
The test system of assay [1] is Staphylococcus aureus. Briefly: Antimicrobial activity against methicillin-resistant Staphylococcus aureus ATCC 33591. Conditions: read-out: MIC100.
Assay [2] deals with Staphylococcus aureus. Nature of the assay: Antimicrobial activity against methicillin-resistant Staphylococcus aureus Sanger 252. Conditions: Sanger 252, read-out: MIC100.
Assay [3] deals with Staphylococcus aureus. Nature of the assay: Antimicrobial activity against methicillin-resistant Staphylococcus aureus UAMS 1182. Conditions: read-out: MIC100.

Values after ≈ are worked out from the molar mass of the structure shown.

Take `CC(C)C[C@H]1NC(=O)[C@@H](NC(=O)c2ncccc2O)[C@@H](C)OC(=O)[C@H](c2ccccc2)N(C)C(=O)[C@H](C)NC(=O)[C@H](C(C)C(C)C)N(C)C(=O)CN(C)C(=O)[C@H]2C[C@@H](O)CN2C1=O` (stereo not given in full) [VIRIFOGRISEIN I]: the MIC is 16 µg/mL (≈ 18.2 µM) in the assay on Staphylococcus aureus [1], 16 µg/mL (≈ 18.2 µM) in the assay with Staphylococcus aureus [2] and 4 µg/mL (≈ 4.55 µM) in the assay on Staphylococcus aureus [3].

With `CC(C)C[C@H]1NC(=O)[C@@H](NC(=O)c2ncccc2O)[C@@H](C)OC(=O)[C@H](CC(C)C)N(C)C(=O)[C@H](C)NC(=O)[C@H](C(C)C(C)C)N(C)C(=O)CN(C)C(=O)[C@H]2C[C@@H](O)CN2C1=O` (stereo not given in full) [FIJIMYCIN B], the MIC in the assay on Staphylococcus aureus [1] and in the assay on Staphylococcus aureus [3] was greater than 32 µg/mL in each case.

As to `CC(C)C[C@H]1NC(=O)[C@@H](NC(=O)c2ncccc2O)[C@@H](C)OC(=O)[C@@H](c2ccccc2)N(C)C(=O)[C@H](C)NC(=O)[C@H](C(C)C(C)C)N(C)C(=O)CN(C)C(=O)[C@H]2C[C@@H](O)CN2C1=O` (stereo not given in full) [FIJIMYCIN A], the MIC in the assay on Staphylococcus aureus [1] was 16 µg/mL (≈ 18.2 µM); in the assay with Staphylococcus aureus [2] it was 32 µg/mL (≈ 36.4 µM); with Staphylococcus aureus [3] it was 4 µg/mL (≈ 4.55 µM).

`CC(C)C[C@H]1NC(=O)[C@@H](NC(=O)c2ncccc2O)[C@@H](C)OC(=O)[C@H](c2ccccc2)N(C)C(=O)[C@H](CO)NC(=O)[C@H](C(C)C(C)C)N(C)C(=O)CN(C)C(=O)[C@H]2C[C@@H](O)CN2C1=O` (stereo not given in full) [FIJIMYCIN C]: the MIC with Staphylococcus aureus [1] amounted to 32 µg/mL (≈ 35.8 µM); with Staphylococcus aureus [3], 8 µg/mL (≈ 8.94 µM).
